Where two headings read alike, the source gives them in different places.
Legend:
[1] = MTT cell viability assay, NHDF; type: cell-based, human; settings: human, normal human dermal fibroblasts (NHDF), single concentration of 10 µM, 72 h, mean ± SD; read-out: cell viability percentage in relation with control, NHDF
Experimental: (§1) Caco-2, MCF-7, PC-3, and NHDF cell lines were obtained from the American Type Culture Collection (ATCC) and maintained in 75 cm^2 culture flasks in a humidified atmosphere at 37 °C with 5% carbon dioxide using a LEEC Culture Safe Precision CO2 Incubator. The culture media was renewed every two to three days. The NHDF cell line was cultured in Roswell Park Memorial Institute (RPMI) medium supplemented with 10% of inactivated fetal bovine serum (FBS), 2 mM of L-glutamine, 10 mM of 4-(2-hydroxyethyl)-1-piperazineethanesulfonic acid (HEPES), 1 mM of sodium pyruvate, and 1% of antibiotic/antimycotic mixture (Ab; 10,000 U/mL of penicillin G, […] of streptomycin, and 25 µg/mL of amphotericin B). The PC-3 cell line was also cultured in RPMI 1640 medium supplemented with 10% inactivated FBS and 1% of an antibiotic mixture (Sp; 10,000 U/mL of penicillin G and […] of streptomycin). The Caco-2 and MCF-7 cell lines were grown in Dulbecco’s Modified Eagle Medium (DMEM). Caco-2 was supplemented with 20% of inactivated FBS and 1% of Sp. On the other hand, the MCF-7 medium was complemented with 10% of inactivated FBS and 1% of Ab. All manipulations were performed in a Labculture Class II A2 Biological Safety Cabinet.
(§2) After the near confluency of cultures, cells were detached with a solution of 0.125 g/L trypsin and 0.02 g/L ethylenediaminetetracetic acid (EDTA), counted using the trypan blue method, resuspended, and seeded in 96-well culture plates (100 µL, 2 × 10^4 cells/mL). Following 48 h of adherence, cells were treated with the test solutions and incubated for 72 h. This incubation, as well as the solution manipulations, were performed in an environment protected from light. After the incubation, the medium was replaced with a fresh incomplete culture medium (without FBS and Ab or Sp) and MTT solution (5 mg/mL in phosphate buffer saline (PBS)). After additional incubation for 4 h, the MTT medium was removed, formazan crystals were dissolved in DMSO, and the optical density of each well was measured at 570 nm using a microplate spectrophotometer Bio-Rad xMark. Untreated cells were used as a negative control and 5-FU as the positive control. The results were expressed as the relative cell proliferation relative to the negative control cells. […] To determine the IC50 values, Caco-2, MCF-7, PC-3, and NHDF cells were exposed to increasing concentrations between 0.001 and 100 μM.

[2] = tested on: normal human dermal fibroblasts (NHDF); test: MTT cell viability assay, NHDF; type: cell-based; settings: for IC50: 72 h of incubation, MTT, protected from light; for cell viability percentage in relation with control, NHDF: single concentration of 10 µM, mean ± SD
Experimental: as §1, §2

[3] = tested on: Caco-2 colorectal adenocarcinoma cell line; test: MTT cell viability assay, Caco-2; type: cell-based, human; settings: for SI Caco-2 (selectivity index, cancer versus NHDF): Caco-2 versus NHDF; for IC50: 72 h of incubation, MTT, protected from light; for viability at 10 µM: read-out: cell viability percentage in relation with control, Caco-2
Experimental: as §1, §2

[4] = tested on: MCF-7 breast adenocarcinoma cell line; test: MTT cell viability assay, MCF-7; type: cell-based, human; settings: for viability at 10 µM: Homo sapiens, read-out: cell viability percentage in relation with control, MCF-7
Experimental: as §1, §2

[5] = tested on: PC-3 prostate adenocarcinoma cell line; test: MTT cell viability assay, PC-3; type: cell-based, human
Experimental: as §1, §2

[6] = MTT cell viability assay, Caco-2; type: cell-based, human; settings: human, 72 h, read-out: SI Caco-2 (selectivity index, cancer versus NHDF)
Experimental: as §1, §2

[7] = Homo sapiens, Caco-2, 72 h, single concentration of 10 µM, 72 h, mean ± SD
[8] = MCF7, 72 h, single concentration of 10 µM, 72 h, mean ± SD
[9] = Homo sapiens, 72 h, single concentration of 10 µM, 72 h, mean ± SD; read-out: cell viability percentage in relation with control, PC-3
[10] = single concentration of 10 µM, 72 h, mean ± SD

## CN1/C(=C/c2sc3ccccc3[n+]2C)Sc2ccccc21 [Dye 2, Methyl-2-((3-methylbenzo[d]thiazol-2(3H)-ylidene)methyl)benzo[d]thiazol-3-ium chloride]
[1]
  viability at 72 h, 10 µM: 5.64 ± 1.15%
[2]; Homo sapiens, NHDF, 72 h
  IC50: 0.77 µM
[3]; 72 h
  SI Caco-2 (selectivity index, cancer versus NHDF): 1.2
[3]; Homo sapiens, Caco-2, 72 h
  IC50: 0.65 µM
[3]; [7]
  viability at 10 µM: 2.18 ± 0.64%
[4]; [8]
  viability at 10 µM: 0.85 ± 0.34%
[5]; [9]
  viability at 10 µM: 1.29 ± 0.24%

## CN1C(=Cc2sc3ccccc3[n+]2C)Sc2ccccc21.[Br-] [Dye 3, 3-Methyl-2-((3-methylbenzo[d]thiazol-2(3H)-ylidene)methyl)benzo[d]thiazol-3-ium bromide]
[2]; Homo sapiens, NHDF, 72 h
  IC50: 0.41 µM
[2]; 72 h
  cell viability percentage in relation with control, NHDF: 3.93 ± 0.75%
[3]; 72 h
  SI Caco-2 (selectivity index, cancer versus NHDF): 0.8
[3]; Homo sapiens, Caco-2, 72 h
  IC50: 0.52 µM
[3]; [7]
  viability at 10 µM: 1.68 ± 0.53%
[4]; [10]
  cell viability percentage in relation with control, MCF-7: 0.52 ± 0.39%
[5]; [9]
  viability at 10 µM: 1.27 ± 0.31%

## CN1C(=Cc2sc3ccccc3[n+]2C)Sc2ccccc21.[I-] [Dye 4, 3-Methyl-2-((3-methylbenzo[d]thiazol-2(3H)-ylidene)methyl)benzo[d]thiazol-3-ium iodide]
[2]; listed as 4
  IC50: 0.73 µM
[2]; 72 h
  cell viability percentage in relation with control, NHDF: 3.82 ± 0.21%
[3]; listed as 4
  IC50: 0.4 µM
[3]; 72 h
  SI Caco-2 (selectivity index, cancer versus NHDF): 1.8
[3]; [10]
  cell viability percentage in relation with control, Caco-2: 3.01 ± 0.74%
[4]; [10]
  cell viability percentage in relation with control, MCF-7: 2.26 ± 0.82%
[5]; [10]
  cell viability percentage in relation with control, PC-3: 1.18 ± 0.36%

## CN1C(=Cc2sc3ccccc3[n+]2C)Sc2ccccc21.Cc1ccc(S(=O)(=O)[O-])cc1 [Dye 5, 3-Methyl-2-((3-methylbenzo[d]thiazol-2(3H)-ylidene)methyl)benzo[d]thiazol-3-ium 4-methylbenzenesulfonate]
[2]; listed as 5
  IC50: 0.68 µM
[2]; 72 h
  cell viability percentage in relation with control, NHDF: 4.42 ± 0.55%
[3]; listed as 5
  IC50: 0.28 µM
[3]; 72 h
  SI Caco-2 (selectivity index, cancer versus NHDF): 2.4
[3]; [10]
  cell viability percentage in relation with control, Caco-2: 2.55 ± 0.58%
[4]; [10]
  cell viability percentage in relation with control, MCF-7: 1.55 ± 0.53%
[5]; [10]
  cell viability percentage in relation with control, PC-3: 1 ± 0.18%

## CCN1C(=Cc2sc3ccccc3[n+]2CC)Sc2ccccc21 [Dye 6]
[1]
  viability at 72 h, 10 µM: 3.37 ± 0.65%
[2]; Homo sapiens, NHDF, 72 h
  IC50: 0.49 µM
[6]; Caco-2, Caco-2 versus NHDF
  selectivity ratio at 72 h: 1.6
[3]; Homo sapiens, Caco-2, 72 h
  IC50: 0.3 µM
[3]; [7]
  viability at 10 µM: 3.52 ± 0.3%
[4]; [8]
  viability at 10 µM: 1.08 ± 0.23%
[5]; [9]
  viability at 10 µM: 2.06 ± 0.89%

## CCN1C(=Cc2sc3ccccc3[n+]2CC)Sc2ccccc21.[O-][Cl+3]([O-])([O-])[O-] [Dye 7, 3-Ethyl-2-((3-ethylbenzo[d]thiazol-2(3H)-ylidene)methyl)benzo[d]thiazol-3-ium perchlorate]
[1]
  viability at 72 h, 10 µM: 3.34 ± 0.14%
[2]; Homo sapiens, NHDF
  IC50: 0.83 µM
[6]; Caco-2 versus NHDF
  selectivity ratio at 72 h: 3
[3]; Homo sapiens, Caco-2, 72 h
  viability at 10 µM: 3.11 ± 0.94%
[3]; Homo sapiens, Caco-2
  IC50: 0.28 µM
[4]; MCF7, 72 h
  viability at 10 µM: 0.96 ± 0.61%
[5]; Homo sapiens, 72 h, read-out: cell viability percentage in relation with control, PC-3
  viability at 10 µM: 1.19 ± 0.29%
other
  melting point: 296 to 297 °C

## C(=C1Sc2ccccc2N1Cc1ccccc1)c1sc2ccccc2[n+]1Cc1ccccc1.[I-] [Dye 8, 3-Benzyl-2-((3-benzylbenzo[d]thiazol-2(3H)-ylidene)methyl)benzo[d]thiazol-3-ium iodide]
[1]
  viability at 72 h, 10 µM: 2.04 ± 0.39%
[2]; Homo sapiens, NHDF, 72 h
  IC50: 0.93 µM
[6]; Caco-2, Caco-2 versus NHDF
  selectivity ratio at 72 h: 1
[3]; Homo sapiens, Caco-2, 72 h
  IC50: 0.95 µM
[3]; [7]
  viability at 10 µM: 0.32 ± 0.03%
[4]; [8]
  viability at 10 µM: 1.47 ± 1.13%
[5]; [9]
  viability at 10 µM: 1.16 ± 0.49%
other
  melting point: 249 to 250 °C

## COC(=O)CN1C(=Cc2sc3ccccc3[n+]2CC(=O)OC)Sc2ccccc21.[Br-] [Dye 9, 3-(2-Methoxy-2-oxoethyl)-2-((3-(2-methoxy-2-oxoethyl)benzo[d]thiazol-2(3H)-ylidene)methyl)benzo[d]thiazol-3-ium bromide]
[1]
  viability at 72 h, 10 µM: 47.9 ± 3.64%
[6]; Caco-2, Caco-2 versus NHDF
  selectivity ratio at 72 h: 0.7
[3]; Homo sapiens, Caco-2, 72 h
  IC50: 1 µM
[3]; [7]
  viability at 10 µM: 47 ± 6.81%
[4]; [8]
  viability at 10 µM: 49 ± 13.9%
[5]; [9]
  viability at 10 µM: 46.8 ± 14%
other
  melting point: 226 to 227 °C

## CCN1C(=CC=Cc2oc3ccccc3[n+]2CC)Oc2ccccc21 [Dye 15, 3-Ethyl-2-(3-(3-ethylbenzo[d]oxazol-2(3H)-ylidene)prop-1-en-1-yl)benzo[d]oxazol-3-ium iodide]
[1]
  viability at 72 h, 10 µM: 3.72 ± 0.23%
[2]; Homo sapiens, NHDF, 72 h
  IC50: 4.02 µM
[6]; Caco-2, Caco-2 versus NHDF
  selectivity ratio at 72 h: 10.4
[3]; Homo sapiens, Caco-2, 72 h
  IC50: 0.39 µM
[3]; [7]
  viability at 10 µM: 8.58 ± 0.92%
[4]; [8]
  viability at 10 µM: 6.03 ± 0.77%
[5]; [9]
  viability at 10 µM: 13.3 ± 1.9%

## CCCCCCCCCCN1C(=CC=C2CCCC(C=Cc3[se]c4ccccc4[n+]3CCCCCCCCCC)=C2Cl)[Se]c2ccccc21.[I-] [Dye 18, 2-(2-(2-Chloro-3-(2-(3-decylbenzo[d][1,3]selenazol-2(3H)-ylidene)ethylidene)cyclohex-1-en-1-yl)vinyl)-3-decylbenzo[d][1,3]selenazol-3-ium iodide]
[1]
  viability at 72 h, 10 µM: 36.6 ± 1.75%
[3]; Homo sapiens, Caco-2, single concentration of 10 µM, 72 h, mean ± SD
  viability at 10 µM: 47.2 ± 5.29%
[4]; MCF7, single concentration of 10 µM, 72 h, mean ± SD
  viability at 10 µM: 51.8 ± 10.1%
[5]; Homo sapiens; single concentration of 10 µM, 72 h, mean ± SD; read-out: cell viability percentage in relation with control, PC-3
  viability at 10 µM: 28.4 ± 7.73%
other
  melting point: 221 to 224 °C

## CC1(C)C(=CC=C2CCCC(C=CC3=[N+](CCCCS(=O)(=O)O)c4ccccc4C3(C)C)=C2Cl)N(CCCCS(=O)(=O)O)c2ccccc21 [Dye 19, 2-(2-(2-Chloro-3-(2-(3,3-dimethyl-1-(4-sulfobutyl)indolin-2-ylidene)ethylidene)cyclohex-1-en-1-yl)vinyl)-3,3-dimethyl-1-(4-sulfobutyl)-3H-indol-1-ium iodide]
[1]
  viability at 72 h, 10 µM: 42 ± 1.76%
[3]; [7]
  viability at 10 µM: 57.4 ± 1.75%
[4]; [8]
  viability at 10 µM: 94.4 ± 7.99%
[5]; [9]
  viability at 10 µM: 51.1 ± 5.32%

## c1ccc2sc(Cc3nc4ccccc4s3)nc2c1 [bisbenzothiazole 1, bis(benzo[d]thiazol-2-yl)methane]
[1]
  viability at 72 h, 10 µM: 31 ± 0.57%
[3]; [7]
  viability at 10 µM: 59.6 ± 5.45%
[4]; [8]
  viability at 10 µM: 55.7 ± 4.97%
[5]; [9]
  viability at 10 µM: 53.2 ± 9.68%
other
  melting point: 97 to 98 °C
